The source of these data is patent US20260125350A1, “CENTROMERE PROTEIN CENP-M SMALL MOLECULE INHIBITOR CENPEMLIN, AND PREPARATION METHOD THEREFOR AND USE THEREOF” (UNIVERSITY OF SCIENCE AND TECHNOLOGY OF CHINA, priority 2022, published 2026).

SMILES strings stand for the structures. A value given as a limit tells only on which side of the number the result lay.

The test system of experiment [1] is liver cancer cells MHCC97-H cells. Nature of the experiment: Liver implantation model of luciferase-stable liver cancer cells in mice, luciferase imaging. It counts as in vivo, NOD/SCID mice. Particulars: intraperitoneal injection, 11th day of administration; cenpemlin 2 mg/kg. On the procedure: • 1) According to the published experimental protocol (Chen et al., 2011. Cancer Res), we implanted luciferase-stable liver cancer cells MHCC97-H cells (5×10^6 in 0.1 mL saline) into the liver of 6-week-old female NOD/SCID mice. The experiment was divided into three groups, namely the DMSO control group, the paclitaxel group and the cenpemlin group (2 mg/kg), with 10 mice in each group. • 2) After 14 days of modeling (successful modeling of luciferase test), the DMSO control group, the paclitaxel group and the cenpemlin experimental group (2 mg/kg) were intraperitoneally injected (0.2 mL per mouse; 0.1 mL was injected on both sides) […]. • 3) After four injections every other day (the 11th day of administration), the luciferase test was performed.

Experiment [2] has as its system HeLa cells stably expressing GFP-CENP-N. Nature of the experiment: Chromosome alignment phenotype in mitosis, immunofluorescence imaging. It counts as cell-based. Particulars: 1 μM, 1 h, after thymidine release. On the procedure:
• 1) HeLa cells stably expressing GFP-CENP-N were seeded on a round coverslip with a diameter of 12 mm; • 2) after 24 h, Thymidine was added to the cells at a final concentration of 2 mM for 14-16 h; • 3) the cells were washed three times with PBS prewarmed at 37° C. to elute Thymidine, and fresh culture medium was added to continue culturing for 8 h; • 4) cempelin was added to the experimental group at a final concentration of 1 μM, and the control group was added with an equal volume of DMSO for 1 h; • 5) the cells were fixed with PBS buffer containing 3.7% formaldehyde for 10 min; • 6) after 0.2% TritonX-100 permeabilization and 1% BSA blocking, ACA antibody was incubated at room temperature for 1 h; • 7) DAPI was stained for 3 min and then the slides were sealed; • 8) the slides were placed on the DV microscope stage and imaged by a 60×, NA=1.42 lens.

Experiment [3] concerns HeLa cells. Nature of the experiment: Real-time live cell imaging of mitosis (mitotic arrest). It counts as cell-based. Particulars: 1 μM. How it is done:
• 1) Inoculate HeLa cells into 35 mm live cell culture dishes; • 2) transfect plasmid DNA: GFP-tubulin and mCherry-H2B after 24 h (the density of transfected plasmid cells is 70%-80%); • 3) replace with fresh culture medium 6 h after transfection and add 2 mM Thymidine to treat cells for 14-16 h; • 4) wash cells 3 times with PBS preheated at 37° C. to release cells, then replace with fresh culture medium to continue culturing; • 5) turn on the Applied Precision Personal DV microscope and thermostat to stabilize the temperature at 37° C.; • 6) 8-9 h after release, replace the cell culture medium with CO2-independent Medium, add cenpemlin with a final concentration of 1 μM or the same volume of DMSO; • 7) place the cells on the 37° C. thermostat stage of the DV microscope and shoot real-time under a 60×, NA=1.42 lens, taking one frame every 3 min.

Experiment [4] has as its system HeLa cells. Nature of the experiment: Elution (washout) effect, real-time live cell imaging after MG132 and compound treatment. It counts as cell-based. Particulars: 1 h with MG132 20 μM and compound, then washed out. How it is done: • 1) Seed HeLa cells into 35 mm live-cell imaging dishes; • 2) transfect plasmid DNA after 24 h: GFP-tubulin and mCherry-H2B (the density of transfected plasmid cells is 70%-80%); • 3) replace with fresh culture medium 6 h after transfection and add MG132 at a final concentration of 20 μM and cenpemlin or DMSO to treat the cells for 1 h; • 4) turn on the Applied Precision Personal DV microscope and the thermostat to stabilize the temperature at 37° C.; • 5) wash the cells three times with PBS prewarmed at 37° C. to release the cells, and then replace with fresh culture medium to continue culturing; • 6) immediately after release, replace the cell culture medium with CO2-independent Medium; • 7) place the cells on the 37° C. thermostat stage of the DV microscope and imaging in real time by a 60×, NA=1.42 lens, taking one frame every 3 min.

Experiment [5] deals with T1, interaction between CENP-M and CENP-L (Homo sapiens, UniProt Q9NSP4).
T1 construct: expressed in transfected cells; host or cells: HEK293T
Nature of the experiment: Co-immunoprecipitation of GFP-CENP-M with FLAG-CENP-L from treated HEK293T cells, immunoblot. It counts as cell-based. Particulars: 1 μM, 1 h, FLAG beads pull-down. How it is done:
• 1) Inoculate HEK293T cells into 6 cm culture dishes; • 2) transfect plasmid DNA: GFP-CENP-M and FLAG-CENP-L after 24 h (the density of cells is 70%-80%); • 3) replace with fresh culture medium 4 h after transfection and continue to culture for 24 h; • 4) add cenpemlin with a final concentration of 1 μM or the same volume of DMSO to treat cells for 1 h; • 5) scrape the cells with a cell scraper, collect them in a centrifuge tube, and remove the culture medium by centrifugation at 1,000 rpm; • 6) add cell lysis buffer for ultrasonic disruption, and centrifuge at 12,000 rpm for 10 min; • 7) take the supernatant and incubate with FLAG beads for 4 h; • 8) wash the beads for three times with cell lysis buffer, boil the sample with sample buffer, and then perform electrophoresis and immunoblot analysis.

In experiment [6] the test system is HeLa cells (cervical cancer cells). Nature of the experiment: Trypan blue staining of cancer cells after treatment. It counts as cell-based. Particulars: 1 μM, 24 h. How it is done:
(§1) • 1) HeLa cells (cervical cancer cells), MDA-MB-231 cells (triple negative breast cancer cells) and HepG2 cells (liver cancer cells) were seeded into 6 cm culture dishes; • 2) The small molecule compound cenpemlin or DMSO was added at a final concentration of 1 μM to treat the cells for 24 h; • 3) The cells were digested with trypsin and the cell suspension was taken for trypan blue staining; • 4) The blue-stained cells were observed and counted under an ordinary optical microscope.

Experiment [7] deals with HepG2 cells (liver cancer cells). Described as above. Particulars: 1 μM, 24 h. The class given is cell-based. On the procedure:
as §1

For experiment [8], the system named is MDA-MB-231 cells (triple negative breast cancer cells). Described as above. Particulars: 1 μM, 24 h. The class given is cell-based. How it is done: as §1

T1 sequence (Q9NSP4 whole entry): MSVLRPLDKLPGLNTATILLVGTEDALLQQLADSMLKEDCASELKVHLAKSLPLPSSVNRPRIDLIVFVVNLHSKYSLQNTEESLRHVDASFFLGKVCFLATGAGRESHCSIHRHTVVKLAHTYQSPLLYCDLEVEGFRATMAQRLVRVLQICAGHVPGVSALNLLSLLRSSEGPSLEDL

As to `CC(=O)O[C@H]1C(=O)[C@@]2(C)[C@H]([C@H](OC(=O)c3ccccc3)[C@]3(O)C[C@H](OC(=O)[C@H](O)[C@@H](NC(=O)c4ccccc4)c4ccccc4)C(C)=C1C3(C)C)[C@]1(OC(C)=O)CO[C@@H]1C[C@@H]2O` [paclitaxel, reference compound], in experiment [1], the “number of cancer cells in the liver of mice (luciferase test)” value is reported as “significantly reduced”.
On to `OCC(O)C(O)C(O)C(O)/C=N/Nc1nc(N2CCOCC2)nc(N2CCOCC2)n1` (centres unmarked) [cenpemlin], for which the “chromosome alignment in cell mitosis” value in experiment [2] is listed as “abnormal chromosome alignment”. In experiment [3] (HeLa), the “time after nuclear membrane rupture without entering the late stage” value is > 120 min. Further, the “mitotic progression (delay)” value in experiment [3] (HeLa GFP-tubulin/mCherry-H2B) is given as “obvious mitotic delays”. In addition, the “spindle phenotype after elution” value in experiment [4] is recorded as “multipolar spindles”. Further, in experiment [4], the “time to exit mitosis after elution” value amounted to 45 min. Further, the “interaction between CENP-M and CENP-L compared with control group” value in experiment [5] is “weakened”. The “proportion of trypan blue stained cells” value in experiment [6], in experiment [7] and in experiment [8] was “increase” throughout. Moreover, the “number of cancer cells in the liver of mice (luciferase test)” value in experiment [1] is on record as “significantly reduced”.
